Assay results taken from patent US9999222B2, “Herbicidal combination comprising azines” (BASF SE, priority 2014, dated 2018).
Like-named read-outs stand apart in the source and are kept apart here.

Key:
Test in all cases: Greenhouse test, pre-emergence treatment
SIDRH = assay type: in vivo, Sida rhombifolia
Excerpt: (§1) The culture containers used were plastic flowerpots containing loamy sand with approximately 3.0% of humus as the substrate. The seeds of the test plants were sown separately for each species.
(§2) For the pre-emergence treatment, the active ingredients, which had been suspended or emulsified in water, were applied directly after sowing by means of finely distributing nozzles. The containers were irrigated gently to promote germination and growth and subsequently covered with transparent plastic hoods until the plants had rooted. This cover caused uniform germination of the test plants, unless this had been impaired by the active ingredients.
(§3) Depending on the species, the plants were kept at 10-25° C. or 20-35° C., respectively.
(§4) The test period extended over 2 to 4 weeks. During this time, the plants were tended, and their response to the individual treatments was evaluated.
(§5) Evaluation was carried out using a scale from 0 to 100. 100 means no emergence of the plants, or complete destruction of at least the aerial moieties, and 0 means no damage, or normal course of growth. A moderate herbicidal activity is given at values of at least 60, a good herbicidal activity is given at values of at least 70, and a very good herbicidal activity is given at values of at least 85.
(§6) The respective stated components a and b, and if appropriate, c were formulated as a 10% by weight strength emulsion concentrate and, with addition of the amount of solvent system, introduced into the spray liquor used for applying the active compound.
(§7) In the examples, the solvent used was water.
(§8) In the examples below, using the method of S. R. Colby (1967) “Calculating synergistic and antagonistic responses of herbicide combinations”, Weeds 15, p. 22ff., the value E, which is expected if the activity of the individual active compounds is only additive, was calculated. E=X+Y−(X·Y/100) where • X=percent activity using active compound a at an application rate A; • Y=percent activity using active compound b at an application rate B; • E=expected activity (in %) by a+b at application rates A+B.
(§9) If the value found experimentally is higher than the value E calculated according to Colby, a synergistic effect is present.

COMBE = assay type: in vivo, Commelina benghalensis; details: Commelina benghalensis, pre-emergence, 480 h
Excerpt: as §1, §2, §3, §4, §5, §6, §7, §8, §9

KCHSC = assay type: in vivo, Kochia scoparia; details: Bassia scoparia, pre-emergence, 480 h
Excerpt: as §1, §2, §3, §4, §5, §6, §7, §8, §9

CENCY = assay type: in vivo; details: 480 h, individual, read-out: observed % activity 20 DAT
POLCO = assay type: in vivo, Polygonum convolvulus; details: pre-emergence
Excerpt: as §1, §2, §3, §4, §5, §6, §7, §8, §9

GERPU = assay type: in vivo, Geranium pusillum; details: Geranium pusillum, pre-emergence, 480 h
Excerpt: as §1, §2, §3, §4, §5, §6, §7, §8, §9

ANTAR = assay type: in vivo; details: Anthemis arvensis, 480 h, 20 DAT, read-out: observed % activity
Excerpt: as §1, §2, §3, §4, §5, §6, §7, §8, §9

ABUTH = assay type: in vivo, Abutilon theophrasti; details: Abutilon theophrasti, 480 h
Excerpt: as §1, §2, §3, §4, §5, §6, §7, §8, §9

GALAP = assay type: in vivo, Galium aparine; details: Galium aparine, pre-emergence, 480 h
Excerpt: as §1, §2, §3, §4, §5, §6, §7, §8, §9

IPOHE = assay type: in vivo, Ipomoea hederacea; details: Ipomoea hederacea, 480 h, 50 g ai/ha, 20 DAT, read-out: observed % activity
Excerpt: as §1, §2, §3, §4, §5, §6, §7, §8, §9

EPHHL = assay type: in vivo, Euphorbia heterophylla; details: Euphorbia heterophylla, pre-emergence, 480 h
Excerpt: as §1, §2, §3, §4, §5, §6, §7, §8, §9

[1] = 6 g ai/ha, 20 DAT, read-out: observed % activity
[2] = 12 g ai/ha, 20 DAT, read-out: observed % activity
[3] = 25 g ai/ha, 20 DAT, read-out: observed % activity
[4] = 50 g ai/ha, 20 DAT, read-out: observed % activity

Work on `Cc1nn(-c2cc(NS(C)(=O)=O)c(Cl)cc2Cl)c(=O)n1C(F)F` [Sulfentrazone, sulfentrazone] yielded an inhibition at 6 g/ha (SIDRH; Sida rhombifolia, pre-emergence, 480 h, 6 g ai/ha, 20 DAT, read-out: observed % activity) of 20%, an inhibition at 10 g/ha (SIDRH; Sida rhombifolia, pre-emergence, 480 h, SIDRH, pre-emergence, individual, use rate 10 g ai/ha, read-out: observed % activity 20 DAT) of 30% and an inhibition at 6 g/ha (COMBE; [1]) of 20%. It also gave an inhibition at 12 g/ha (COMBE; [2]) of 45%, an inhibition at 10 g/ha (COMBE; COMBE, individual, use rate 10 g ai/ha, read-out: observed % activity 20 DAT) of 15% and an inhibition at 12 g/ha (KCHSC; [2]) of 98%. The inhibition at 5 g/ha (KCHSC; KCHSC, individual, use rate 5 g ai/ha, read-out: observed % activity 20 DAT) was 70%, the inhibition at 10 g/ha (KCHSC; KCHSC, individual, use rate 10 g ai/ha, read-out: observed % activity 20 DAT) was 65% and the inhibition at 5 g/ha (CENCY; use rate 5 g ai/ha) was 20%. The inhibition at 10 g/ha (CENCY; use rate 10 g ai/ha) was 30%, the inhibition at 6 g/ha (POLCO; Fallopia convolvulus, 480 h, 6 g ai/ha, 20 DAT, read-out: observed % activity) was 0% and the inhibition at 12 g/ha (POLCO; Fallopia convolvulus, 480 h, 12 g ai/ha, 20 DAT, read-out: observed % activity) was 0%. The inhibition at 10 g/ha (POLCO; Fallopia convolvulus, 480 h, POLCO, individual, use rate 10 g ai/ha, read-out: observed % activity 20 DAT) was 25%, the “observed % activity 20 DAT” value (POLCO; POLCO, individual, use rate 5 g ai/ha) was 40% and the inhibition at 6 g/ha (GERPU; [1]) was 40%. It also gave an inhibition at 12 g/ha (GERPU; [2]) of 45%, an inhibition at 6 g/ha (ANTAR; 6 g ai/ha) of 30% and an inhibition at 12 g/ha (ANTAR; 12 g ai/ha) of 60%. For the same compound, the inhibition at 6 g/ha (ABUTH; [1]) was 20%, the inhibition at 12 g/ha (ABUTH; [2]) was 45% and the inhibition at 10 g/ha (ABUTH; ABUTH, individual, use rate 10 g ai/ha, read-out: observed % activity 20 DAT) was 25%. For the same compound, the inhibition at 6 g/ha (GALAP; [1]) was 0%, the inhibition at 5 g/ha (GALAP; GALAP, individual, use rate 5 g ai/ha, read-out: observed % activity 20 DAT) was 25% and the inhibition at 10 g/ha (GALAP; GALAP, individual, use rate 10 g ai/ha, read-out: observed % activity 20 DAT) was 50%.

For `CS(=O)(=O)c1ccc(C(=O)C2C(=O)CCCC2=O)c([N+](=O)[O-])c1` [Mesotrione, mesotrione], the observed % activity (SIDRH; 25 g ai/ha, 20 DAT) was 55%, the inhibition at 25 g/ha (SIDRH; Sida rhombifolia, pre-emergence, 480 h, 25 g ai/ha, 20 DAT, read-out: observed % activity) was 60% and the inhibition at 50 g/ha (SIDRH; Sida rhombifolia, pre-emergence, 480 h, 50 g ai/ha, 20 DAT, read-out: observed % activity) was 85%. The inhibition at 25 g/ha (COMBE; [3]) was 65%, the inhibition at 50 g/ha (COMBE; [4]) was 98% and the inhibition at 25 g/ha (COMBE; COMBE, individual, use rate 25 g ai/ha, read-out: observed % activity 20 DAT) was 0%. It also gave an inhibition at 50 g/ha (COMBE; COMBE, individual, use rate 50 g ai/ha, read-out: observed % activity 20 DAT) of 0%, an inhibition at 50 g/ha (IPOHE) of 30% and an inhibition at 25 g/ha (EPHHL; [3]) of 60%. For the same compound, the inhibition at 50 g/ha (EPHHL; [4]) was 70%, the inhibition at 25 g/ha (EPHHL; EPHHL, individual, use rate 25 g ai/ha, read-out: observed % activity 20 DAT) was 50% and the inhibition at 50 g/ha (EPHHL; EPHHL, individual, use rate 50 g ai/ha, read-out: observed % activity 20 DAT) was 60%. It also gave an inhibition at 25 g/ha (KCHSC; [3]) of 70%, an inhibition at 50 g/ha (KCHSC; [4]) of 90% and an inhibition at 25 g/ha (CENCY; use rate 25 g ai/ha) of 60%. The inhibition at 50 g/ha (CENCY; use rate 50 g ai/ha) was 40%, the inhibition at 25 g/ha (POLCO; Fallopia convolvulus, 480 h, 25 g ai/ha, 20 DAT, read-out: observed % activity) was 20% and the inhibition at 50 g/ha (POLCO; Fallopia convolvulus, 480 h, 50 g ai/ha, 20 DAT, read-out: observed % activity) was 30%. The inhibition at 25 g/ha (POLCO; Fallopia convolvulus, 480 h, POLCO, individual, use rate 25 g ai/ha, read-out: observed % activity 20 DAT) was 0%, the inhibition at 50 g/ha (POLCO; Fallopia convolvulus, 480 h, POLCO, individual, use rate 50 g ai/ha, read-out: observed % activity 20 DAT) was 0% and the inhibition at 25 g/ha (GERPU; [3]) was 0%. It also gave an inhibition at 50 g/ha (GERPU; [4]) of 0%, an inhibition at 25 g/ha (GERPU; GERPU, individual, use rate 25 g ai/ha, read-out: observed % activity 20 DAT) of 70% and an inhibition at 25 g/ha (ANTAR; 25 g ai/ha) of 85%. For the same compound, the inhibition at 50 g/ha (ANTAR; 50 g ai/ha) was 95%, the inhibition at 25 g/ha (ABUTH; [3]) was 95% and the inhibition at 50 g/ha (GALAP; [4]) was 75%. For the same compound, the inhibition at 25 g/ha (GALAP; GALAP, individual, use rate 25 g ai/ha, read-out: observed % activity 20 DAT) was 65% and the inhibition at 50 g/ha (GALAP; GALAP, individual, use rate 50 g ai/ha, read-out: observed % activity 20 DAT) was 80%.
